Reference: patent US20200247800A1, “SUBSTITUTED BICYCLIC HETEROCYCLIC COMPOUNDS AS NADPH OXIDASE INHIBITORS” (Glenmark Pharmaceuticals S.A., priority 2017, published 2020)

Molecular target: T1, human NOX4 (Homo sapiens, UniProt Q9NPH5)
T1 construct: expressed in transfected cells; membrane fraction used
T1 sequence (Q9NPH5 1-578): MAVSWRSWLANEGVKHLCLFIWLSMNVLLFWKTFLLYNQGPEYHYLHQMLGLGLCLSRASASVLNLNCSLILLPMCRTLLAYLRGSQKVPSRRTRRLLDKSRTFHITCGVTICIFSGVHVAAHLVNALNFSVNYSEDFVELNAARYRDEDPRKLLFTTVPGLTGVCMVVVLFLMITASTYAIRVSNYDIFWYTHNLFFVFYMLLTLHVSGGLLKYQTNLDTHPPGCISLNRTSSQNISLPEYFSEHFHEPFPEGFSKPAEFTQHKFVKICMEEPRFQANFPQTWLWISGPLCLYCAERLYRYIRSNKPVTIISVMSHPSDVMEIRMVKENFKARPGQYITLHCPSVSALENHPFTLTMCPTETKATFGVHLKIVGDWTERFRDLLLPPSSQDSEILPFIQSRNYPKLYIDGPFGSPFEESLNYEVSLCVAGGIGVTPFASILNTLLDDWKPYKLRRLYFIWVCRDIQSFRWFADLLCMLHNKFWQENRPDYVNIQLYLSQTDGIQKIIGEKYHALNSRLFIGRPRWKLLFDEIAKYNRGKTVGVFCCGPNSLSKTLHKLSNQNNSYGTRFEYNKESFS
T1 sequence (P13498 1-195 partner): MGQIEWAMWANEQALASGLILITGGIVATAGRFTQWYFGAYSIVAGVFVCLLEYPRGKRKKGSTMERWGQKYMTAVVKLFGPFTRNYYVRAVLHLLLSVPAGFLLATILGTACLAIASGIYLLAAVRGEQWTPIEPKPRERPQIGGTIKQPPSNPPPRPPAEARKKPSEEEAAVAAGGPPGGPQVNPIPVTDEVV
Assay: Cell free membrane based in vitro NOX4 assay: H2O2 production by membranes expressing human NOX4, measured with Amplex Red
Format: biochemical
Details: for inhibition at 1 µM: 1.0 μM compound, read-out: Percentage inhibition at 1.0 μM; for inhibition at 10 µM: 10.0 μM compound, read-out: Percentage inhibition at 10.0 μM; for IC50: class symbols
Method in brief: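 Membranes from HEK cells stably overexpressing human NOX4 were preincubated 20 min with inhibitor in pH 7.4 HEPES buffer containing HRP and Amplex Red, then NADPH was added. H2O2 was followed for 10 min by fluorescence (ex 544/em 590 nm). IC50 from nonlinear regression of % maximal uninhibited response.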

Row | inhibition at 1 µM | inhibition at 10 µM | IC50 | SMILES
1 | 100% | 100% | 50 to 100 nM | Cc1nn(CCN(C)C)c2[nH]c(-c3c(F)cccc3F)c(O)c(=O)c12 [Example 89, 6-(2,6-Difluorophenyl)-1-(2-(dimethylamino)ethyl)-5-hydroxy-3-methyl-1H-pyrazolo[3,4-b]pyridin-4(7H)-one]
2 | 100% | 100% | 50 to 100 nM | COCCn1nc(C)c2c(=O)c(O)c(-c3c(F)cccc3F)[nH]c21 [Example 90, 6-(2,6-Difluorophenyl)-5-hydroxy-1-(2-methoxyethyl)-3-methyl-1H-pyrazolo[3,4-b]pyridin-4(7H)-one]
3 | 98.3% | 87.1% | 50 to 100 nM | CC(C)c1nn(C)c2[nH]c(-c3c(F)cccc3F)c(O)c(=O)c12 [Example 91, 6-(2,6-Difluorophenyl)-5-hydroxy-3-isopropyl-1-methyl-1H-pyrazolo[3,4-b]pyridin-4(7H)one]
4 | 75.6% | 76.5% | 100 to 150 nM | COCCCn1nc(C)c2c(=O)c(O)c(-c3c(F)cccc3F)[nH]c21 [Example 92, 6-(2,6-Difluorophenyl)-5-hydroxy-1-(3-methoxypropyl)-3-methyl-1H-pyrazolo[3,4-b]pyridin-4(7H)-one]
5 | 69.1% | 79.6% | > 150 nM | Cc1ccc(F)c(-c2[nH]c3c(c(C)nn3C3CC3)c(=O)c2O)c1F [Example 93, 1-Cyclopropyl-6-(2,6-difluoro-3-methylphenyl)-5-hydroxy-3-methyl-1H-pyrazolo[3,4-b]pyridin-4(7H)-one]
6 | 72.5% | 80% | > 150 nM | Cc1nn(C2CC2)c2[nH]c(-c3c(F)cc(F)cc3F)c(O)c(=O)c12 [Example 94, 1-Cyclopropyl-5-hydroxy-3-methyl-6-(2,4,6-trifluorophenyl)-1H-pyrazolo[3,4-b]pyridin-4(7H)-one]
7 | 71.1% | 62.6% | > 150 nM | CCn1nc(C)c2c(=O)c(O)c(-c3cccc(F)c3F)[nH]c21 [Example 95, 6-(2,3-Difluorophenyl)-1-ethyl-5-hydroxy-3-methyl-1H-pyrazolo[3,4-b]pyridin-4(7H)-one]
8 | 67.3% | 72.3% | > 150 nM | Cc1nn(C2CC2)c2[nH]c(-c3cccc(F)c3F)c(O)c(=O)c12 [Example 96, 1-Cyclopropyl-6-(2,3-difluorophenyl)-5-hydroxy-3-methyl-1H-pyrazolo[3,4-b]pyridin-4(7H)-one]
9 | 76.7% | 78.2% | > 150 nM | CCn1nc(C)c2c(=O)c(O)c(-c3c(F)cc(F)cc3F)[nH]c21 [Example 97, 1-Ethyl-5-hydroxy-3-methyl-6-(2,4,6-trifluorophenyl)-1H-pyrazolo[3,4-b]pyridin-4(7H)-one]
10 | 86.4% | 93.4% | 50 to 100 nM | O=c1c(O)c(-c2c(F)cccc2F)[nH]c2[nH]nc(C(F)(F)F)c12 [Example 98, 6-(2,6-Difluorophenyl)-5-hydroxy-3-(trifluoromethyl)-1H-pyrazolo[3,4-b]pyridin-4(7H)-one]
11 | 71.3% | 85.1% | > 150 nM | CCn1nc(C(F)F)c2c(=O)c(O)c(-c3c(F)cccc3F)[nH]c21 [Example 99, 3-(Difluoromethyl)-6-(2,6-difluorophenyl)-1-ethyl-5-hydroxy-1H-pyrazolo[3,4-b]pyridin-4(7H)-one]
12 | 66.7% | 84.8% | > 150 nM | CCn1nc(C(F)(F)F)c2c(=O)c(O)c(-c3c(F)cccc3F)[nH]c21 [Example 100, 6-(2,6-Difluorophenyl)-1-ethyl-5-hydroxy-3-(trifluoromethyl)-1H-pyrazolo[3,4-b]pyridin-4(7H)-one]
13 | 69.7% | 88.6% | > 150 nM | CCn1cnc2c(=O)c(O)c(-c3c(F)cccc3F)[nH]c21 [Example 101, 5-(2,6-Difluorophenyl)-3-ethyl-6-hydroxy-3H-imidazo[4,5-b]pyridin-7(4H)-one]
14 | 86.2% | 91.5% | 50 to 100 nM | COCc1nn(C)c2[nH]c(-c3c(F)cccc3F)c(O)c(=O)c12 [Example 102, 6-(2,6-Difluorophenyl)-5-hydroxy-3-(methoxymethyl)-1-methyl-1H-pyrazolo[3,4-b]pyridin-4(7H)-one]
15 | 99.4% | 100% | < 50 nM | CCc1nn(CC)c2[nH]c(-c3c(F)cccc3F)c(O)c(=O)c12 [Example 103, 6-(2,6-Difluorophenyl)-1,3-diethyl-5-hydroxy-1,7-dihydro-4H-pyrazolo[3,4-b]pyridin-4-one]
16 | 99.8% | 96.9% | 100 to 150 nM | CCn1nc(C)c2c(=O)c(O)c(-c3cccc(C(F)(F)F)c3F)[nH]c21 [Example 104, 1-Ethyl-6-[2-fluoro-3-(trifluoromethyl)phenyl]-5-hydroxy-3-methyl-1,7-dihydro-4H-pyrazolo[3,4-b]pyridin-4-one]
17 | 99.1% | 100% | > 150 nM | CCn1ncc2c(=O)c(O)c(-c3c(F)cccc3F)[nH]c21 [Example 105, 6-(2,6-Difluorophenyl)-1-ethyl-5-hydroxy-1,7-dihydro-4H-pyrazolo[3,4-b]pyridin-4-one]
18 | 100% | 100% | 50 to 100 nM | Cc1n[nH]c2[nH]c(-c3c(F)cccc3F)c(O)c(=O)c12 [Example 106, 6-(2,6-Difluorophenyl)-5-hydroxy-3-methyl-1,7-dihydro-4H-pyrazolo[3,4-b]pyridin-4-one]
19 | 70.8% | 61.2% | > 150 nM | CCn1nc(C)c2c(=O)c(O)c(-c3ccccc3F)[nH]c21 [Example 107, 1-Ethyl-6-(2-fluorophenyl)-5-hydroxy-3-methyl-1,7-dihydro-4H-pyrazolo[3,4-b]pyridin-4-one]
20 | 70.7% | 77.9% | 50 to 100 nM | Cc1nn(CC(C)C)c2[nH]c(-c3c(F)cccc3F)c(O)c(=O)c12 [Example 108, 6-(2,6-Difluorophenyl)-5-hydroxy-1-isobutyl-3-methyl-1H-pyrazolo[3,4-b]pyridin-4(7H)-one]
21 | 60.5% | 82.1% | > 150 nM | CCn1nc(C(F)(F)F)c2c(=O)c(O)c(-c3ccccc3Cl)[nH]c21 [Example 109, 6-(2-Chlorophenyl)-1-ethyl-5-hydroxy-3-(trifluoromethyl)-1H-pyrazolo[3,4-b]pyridin-4(7H)-one]
22 | 60.5% | 63% | > 150 nM | CCn1nc(C)c2c(=O)c(O)c(-c3ccccc3OC)[nH]c21 [Example 110, 1-Ethyl-5-hydroxy-6-(2-methoxyphenyl)-3-methyl-1H-pyrazolo[3,4-b]pyridin-4(7H)-one]
23 | 56.4% | 81.7% | > 150 nM | CC(C)Cn1nc(C(F)(F)F)c2c(=O)c(O)c(-c3c(F)cccc3F)[nH]c21 [Example 111, 6-(2,6-Difluorophenyl)-5-hydroxy-1-isobutyl-3-(trifluoromethyl)-1H-pyrazolo[3,4-b]pyridin-4(7H)-one]
24 | 44.1% |  |  | CCn1nc(C)c2c(=O)c(O)c(-c3ccc(F)cc3)[nH]c21 [Example 112, 1-Ethyl-6-(4-fluorophenyl)-5-hydroxy-3-methyl-1,7-dihydro-4H-pyrazolo[3,4-b]pyridin-4-one]
25 | 91.3% | 92.3% | 50 to 100 nM | Cn1nc(-c2ccc(F)cc2)c2c(=O)c(O)c(-c3c(F)cccc3F)[nH]c21 [Example 113, 6-(2,6-Difluorophenyl)-3-(4-fluorophenyl)-5-hydroxy-1-methyl-1H-pyrazolo[3,4-b]pyridin-4(7H)-one]
26 | 61% | 69.9% | > 150 nM | COc1ccc(-c2[nH]c3c(c(C)nn3C3CC3)c(=O)c2O)c(F)c1 [Example 114, 1-Cyclopropyl-6-(2-fluoro-4-methoxyphenyl)-5-hydroxy-3-methyl-1H-pyrazolo[3,4-b]pyridin-4(7H)-one]
27 | 76.7% | 80.8% | 100 to 150 nM | Cn1nc(Cc2ccccc2)c2c(=O)c(O)c(-c3c(F)cccc3F)[nH]c21 [Example 115, 3-Benzyl-6-(2,6-difluorophenyl)-5-hydroxy-1-methyl-1H-pyrazolo[3,4-b]pyridin-4(7H)-one]
